By inhibition is commonly meant the relative decrease from the control value, in per cent.

Here are results for two molecules from patent US5143839A, “Assay of endopeptidases and novel purified bacterial enzyme” (Ramot Ltd., priority 1989, dated 1992).

The subject of assay [1] is Human neutrophils. Put plainly: Hydrolysis of the substrate by human neutrophils. The conditions noted are these: substrate 0.4 mM, pH 7.5; neutrophils from a healthy donor, 5×10^5 cells/ml. Type of assay: cell-based. As for the experimental part:
(§1) Neutral endopeptidase and neutral proteinase activities were assayed by the two-stage assay using the synthetic substrate Suc-Ala-Ala-Leu-NH-Np supplemented with Streptomyces griseus aminopeptidase, usually 6-7 μg/ml. Assays were performed in 0.1M NaCl-0.05M Tris.HCl, pH 7.5 at 25° C., unless otherwise stated, with or without 0.01M CaCl2. Assay volume was 1 ml or 2.5 ml when using a Varian Techtron spectrophotometer or 0.2 ml at 23° C. when performed with microplates (Munc Immuno Plate II F) using a Kinetic Microplate Reader (Molecular Devices Corp.). Activity was measured by following the increase in absorbance at 405 nm, due to the release of 4-nitroaniline, E405 =10,600M^-1 cm^-1 [14 ]. Molar concentration of thermolysin was estimated using A280 1% =17.65 [15] and molecular mass of 34,600 Da; molar concentration of bovine kidney neutral endopeptidase by protein determination and molecular mass of 90 kDa, deduced from SDS PAGE. Both endopeptidase 24.11 from bovine kidney and thermolysin cleave the Ala-Leu bond of the compound at a very fast rate (Table 3). The Leu residue of the substrate interacts with the major hydrophobic specificity sites of the enzymes (S'1), whereas the two Ala residues interact with additional subsites (S1, S2), thereby contributing to catalysis and/or binding. Even the 4-nitroaniline leaving group probably interacts with the enzyme at subsite S'2. […]

The target in assay [2] is T1, Endopeptidase 24.11 from bovine kidney (Bos taurus, UniProt E1BPL8).
T1 construct: Endopeptidase 24.11 from bovine kidney was purified by Triton X-100 extraction; from tissue; host or cells: bovine kidney
T1 sequence (E1BPL8 1-750): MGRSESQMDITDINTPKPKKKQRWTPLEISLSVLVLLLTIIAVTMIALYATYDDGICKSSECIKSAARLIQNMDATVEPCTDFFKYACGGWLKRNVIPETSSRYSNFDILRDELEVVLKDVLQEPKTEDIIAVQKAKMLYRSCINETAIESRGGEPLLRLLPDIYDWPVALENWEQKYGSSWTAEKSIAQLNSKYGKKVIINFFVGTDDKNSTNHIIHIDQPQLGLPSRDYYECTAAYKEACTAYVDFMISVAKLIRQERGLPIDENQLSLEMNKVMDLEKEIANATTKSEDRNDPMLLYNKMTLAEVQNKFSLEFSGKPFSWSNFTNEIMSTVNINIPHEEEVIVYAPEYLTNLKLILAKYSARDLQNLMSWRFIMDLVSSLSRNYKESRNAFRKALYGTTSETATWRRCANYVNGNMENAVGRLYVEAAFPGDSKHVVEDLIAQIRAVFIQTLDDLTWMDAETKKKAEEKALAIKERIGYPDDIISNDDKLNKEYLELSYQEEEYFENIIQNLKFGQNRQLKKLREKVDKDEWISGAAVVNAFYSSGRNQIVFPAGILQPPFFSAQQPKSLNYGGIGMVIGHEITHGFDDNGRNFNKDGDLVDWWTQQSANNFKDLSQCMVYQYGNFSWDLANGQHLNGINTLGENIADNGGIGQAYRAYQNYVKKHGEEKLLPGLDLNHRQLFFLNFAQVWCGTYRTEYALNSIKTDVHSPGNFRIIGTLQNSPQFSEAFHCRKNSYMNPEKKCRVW
In words: Two-stage assay with Suc-Ala-Ala-Leu-NH-Np plus S. griseus aminopeptidase: inhibition by phosphoramidon. Type of assay: biochemical. As for the experimental part: (§2) Neutral endopeptidase and neutral proteinase activities were assayed by the two-stage assay using the synthetic substrate Suc-Ala-Ala-Leu-NH-Np supplemented with Streptomyces griseus aminopeptidase, usually 6-7 μg/ml. Assays were performed in 0.1M NaCl-0.05M Tris.HCl, pH 7.5 at 25° C., unless otherwise stated, with or without 0.01M CaCl2. Assay volume was 1 ml or 2.5 ml when using a Varian Techtron spectrophotometer or 0.2 ml at 23° C. when performed with microplates (Munc Immuno Plate II F) using a Kinetic Microplate Reader (Molecular Devices Corp.). Activity was measured by following the increase in absorbance at 405 nm, due to the release of 4-nitroaniline, E405 =10,600M^-1 cm^-1 [14 ]. Molar concentration of thermolysin was estimated using A280 1% =17.65 [15] and molecular mass of 34,600 Da; molar concentration of bovine kidney neutral endopeptidase by protein determination and molecular mass of 90 kDa, deduced from SDS PAGE. Both endopeptidase 24.11 from bovine kidney and thermolysin cleave the Ala-Leu bond of the compound at a very fast rate (Table 3). The Leu residue of the substrate interacts with the major hydrophobic specificity sites of the enzymes (S'1), whereas the two Ala residues interact with additional subsites (S1, S2), thereby contributing to catalysis and/or binding. Even the 4-nitroaniline leaving group probably interacts with the enzyme at subsite S'2. Previously reported assays of endopeptidase 24.11 usually utilized a hydrophobic Phe residue, but Leu seems preferable in reaching higher kcat values. The rapid hydrolysis of the Leu residue is also preferable for the present two-stage assay utilizing Steptomyces aminopeptidase, since this enzyme very rapidly hydrolyzes the product of the endopeptidase attack, Leu-NH-Np. The rapid hydrolysis coupled with Km values in the 1 mM range and overall kcat /Km values in the 10^6 M^-1 s^-1 range (Table 3), render the substrate most suitable for detailed kinetic investigations of the enzymes and for detection of the 24.11 and 24.4 classes of enzymes in mammalian tissues and in bacterial extracellular fluids, respectively.
(§3) Like other previously reported substrates for endopeptidase 24.11, the substrate employed may, in principle, be hydrolyzed by chymotrypsin-like enzymes. To assess the contribution of the neutral endopeptidases and neutral proteinases 1 the observed color development, the specific inhibitor of these classes of enzymes phosphoramidon was added (Table 4).
(§4) Inhibition was measured at pH 7.5, 25° C., in the presence of 10 mM CaCl2 except for the neutrophils that were assayed at 37° C. and in the absence of added Ca^2+. The substrate Suc-Ala-Ala-Leu-NH-Npat 0.4 mM was used. […]

Assay [3] concerns the target T2, Thermolysin (Bacillus thermoproteolyticus, UniProt P00800).
T2 sequence (P00800 233-548): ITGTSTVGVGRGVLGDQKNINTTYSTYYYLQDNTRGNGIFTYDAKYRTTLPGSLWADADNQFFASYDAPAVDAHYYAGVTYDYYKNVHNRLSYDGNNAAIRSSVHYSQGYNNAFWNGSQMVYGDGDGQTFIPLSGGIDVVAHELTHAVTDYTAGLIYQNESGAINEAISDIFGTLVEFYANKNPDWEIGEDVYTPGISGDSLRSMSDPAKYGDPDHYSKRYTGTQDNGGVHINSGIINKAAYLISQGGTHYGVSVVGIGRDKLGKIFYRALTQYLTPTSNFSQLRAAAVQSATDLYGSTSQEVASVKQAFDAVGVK
Described as above. Type of assay: biochemical. As to the method: as §2, §3, §4

Assay [4] deals with Human neutrophils. Put plainly: Two-stage assay on intact cells: inhibition by phosphoramidon. The assay is classed as cell-based. As to the method:
as §1, with “3).” for “3). The Leu residue of the substrate interacts with the major hydrophobic specificity sites of the enzymes (S'1), whereas the two Ala residues interact with additional subsites (S1, S2), thereby contributing to catalysis and/or binding. Even the 4-nitroaniline leaving group probably interacts with the enzyme at subsite S'2.”
(§5) Inhibition was measured at pH 7.5, 25° C., in the presence of 10 mM CaCl2 except for the neutrophils that were assayed at 37° C. and in the absence of added Ca^2+. […]

In assay [5] the target is T3, B. cereus culture (Bacillus cereus, UniProt P05806).
T3 construct: B. cereus culture filtrate, 5 μl/ml substrate; endogenous in cells; host or cells: Bacillus cereus X-3 DSM 3101 culture filtrate
T3 sequence (P05806 250-566): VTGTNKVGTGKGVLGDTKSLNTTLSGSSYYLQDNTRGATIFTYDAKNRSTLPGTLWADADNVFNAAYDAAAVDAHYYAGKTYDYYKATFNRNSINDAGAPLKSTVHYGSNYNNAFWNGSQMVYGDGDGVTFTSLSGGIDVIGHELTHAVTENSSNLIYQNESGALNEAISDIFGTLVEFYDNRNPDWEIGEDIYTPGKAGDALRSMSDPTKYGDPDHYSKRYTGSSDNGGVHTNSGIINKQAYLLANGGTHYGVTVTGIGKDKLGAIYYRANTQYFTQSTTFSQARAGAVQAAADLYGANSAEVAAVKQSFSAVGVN
Put plainly: Two-stage assay on bacterial culture filtrate: inhibition by phosphoramidon. The assay is classed as biochemical. As for the experimental part: Bacillus cereus (X-3 DSM 3101, German Collection of Microorganisms, Braunschweig, FRG) containing the neural proteinase were obtained by overnight cultivation in a rich medium supplemented with calcium chloride.
as §1, with “PAGE.” for “PAGE. Both endopeptidase 24.11 from bovine kidney and thermolysin cleave the Ala-Leu bond of the compound at a very fast rate (Table 3). The Leu residue of the substrate interacts with the major hydrophobic specificity sites of the enzymes (S'1), whereas the two Ala residues interact with additional subsites (S1, S2), thereby contributing to catalysis and/or binding. Even the 4-nitroaniline leaving group probably interacts with the enzyme at subsite S'2.”
as §5

Starred links: 1 amine or outer side, 2 acyl side, 3 side chain; linkers in the order of their positions; H or OH if unused. Residues, ends and D or L forms follow the SMILES beside them. *: point of attachment. pNA = O=[N+]([O-])c1ccc(N*)cc1; Suc = O=C(CCC(=O)[*:2])[*:1]

Take `CC(C)C[C@H](NC(=O)[C@H](C)NC(=O)[C@H](C)NC(=O)CCC(=O)O)C(=O)Nc1ccc([N+](=O)[O-])cc1` [Suc-Ala-Ala-Leu-NH-Np] (Suc-Ala-Ala-Leu-pNA): in assay [1], the “rate of substrate hydrolysis” value is recorded as ~ 1.3 nmoles/min/10^6 cells.

As for `CC(C)C[C@H](NP(=O)(O)O[C@@H]1O[C@@H](C)[C@H](O)[C@@H](O)[C@H]1O)C(=O)N[C@@H](Cc1c[nH]c2ccccc12)C(=O)O` [phosphoramidon], the inhibition at 3.6 µM in assay [2] (phosphoramidon 3.6 μM, pH 7.5, 25° C., 10 mM CaCl2, substrate 0.4 mM, enzyme 2.2×10^-9 M) is greater than 99%; in assay [4] (Homo sapiens, Neutrophil, phosphoramidon 3.6 μM, pH 7.5, 37° C., no added Ca2+, substrate 0.4 mM, 5×10^5 cells/ml), greater than 95%. Besides, the “effect of inhibitor on activity” value in assay [2] (purified enzyme) and in assay [3] (purified enzyme) was “completely abolishes the activity” throughout. Besides, the inhibition at 18 µM in assay [3] (phosphoramidon 18.0 μM, pH 7.5, 25° C., 10 mM CaCl2, substrate 0.4 mM, enzyme 1.5×10^-9 M) was greater than 99%; in assay [5] (phosphoramidon 18.0 μM, pH 7.5, 25° C., 10 mM CaCl2, substrate 0.4 mM, culture filtrate 5 μl/ml substrate) it was roughly 95%. In addition, the “effect of inhibitor on enzymatic reaction” value in assay [4] (intact neutrophils) and in assay [5] (bacterial culture) was “strongly inhibits” each time.
